Holding throughout (experiment): Kinase selectivity, scanMAX Kinase assay panel (DiscoverX), % control at 1 uM
What all share (type): binding

In assay [1] the target is T1, scanMAX Kinase assay panel (Homo sapiens, UniProt Q15831).
T1 construct: purchased DiscoverX
T1 sequence (Q15831 1-433): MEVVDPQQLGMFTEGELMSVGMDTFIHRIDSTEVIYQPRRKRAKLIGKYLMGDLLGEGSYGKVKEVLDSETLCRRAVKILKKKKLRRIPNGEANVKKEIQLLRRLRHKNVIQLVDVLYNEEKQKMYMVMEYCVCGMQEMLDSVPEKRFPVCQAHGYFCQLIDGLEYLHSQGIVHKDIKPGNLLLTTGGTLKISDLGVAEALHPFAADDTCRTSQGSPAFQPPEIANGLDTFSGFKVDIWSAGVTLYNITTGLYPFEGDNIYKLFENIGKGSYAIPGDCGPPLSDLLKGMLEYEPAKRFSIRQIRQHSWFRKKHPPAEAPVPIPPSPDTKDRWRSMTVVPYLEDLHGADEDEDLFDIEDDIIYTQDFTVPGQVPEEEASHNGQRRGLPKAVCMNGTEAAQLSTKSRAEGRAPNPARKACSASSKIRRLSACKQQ
The following applies: LKB1; 1 uM; read-out: Percent Control (%). In a few lines: (§1)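 Binding across the scanMAX kinase panel was tested at 1 uM compound. % control = (compound − positive control)/(negative control − positive control) × 100; below 35 counted as active.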

The target of assay [2] is T2, scanMAX Kinase assay panel (Homo sapiens, UniProt P11802).
T2 construct: purchased DiscoverX
The following applies: 1 uM, read-out: Percent Control (%). In a few lines: as §1

Assay [3] deals with T3, scanMAX Kinase assay panel (Homo sapiens, UniProt Q00535).
T3 construct: purchased DiscoverX
Conditions: CDK5; 1 uM; read-out: Percent Control (%). In a few lines: as §1

In assay [4] the target is T4, scanMAX Kinase assay panel (Homo sapiens, UniProt Q9NRH2).
T4 construct: purchased DiscoverX
T4 sequence (Q9NRH2 1-765): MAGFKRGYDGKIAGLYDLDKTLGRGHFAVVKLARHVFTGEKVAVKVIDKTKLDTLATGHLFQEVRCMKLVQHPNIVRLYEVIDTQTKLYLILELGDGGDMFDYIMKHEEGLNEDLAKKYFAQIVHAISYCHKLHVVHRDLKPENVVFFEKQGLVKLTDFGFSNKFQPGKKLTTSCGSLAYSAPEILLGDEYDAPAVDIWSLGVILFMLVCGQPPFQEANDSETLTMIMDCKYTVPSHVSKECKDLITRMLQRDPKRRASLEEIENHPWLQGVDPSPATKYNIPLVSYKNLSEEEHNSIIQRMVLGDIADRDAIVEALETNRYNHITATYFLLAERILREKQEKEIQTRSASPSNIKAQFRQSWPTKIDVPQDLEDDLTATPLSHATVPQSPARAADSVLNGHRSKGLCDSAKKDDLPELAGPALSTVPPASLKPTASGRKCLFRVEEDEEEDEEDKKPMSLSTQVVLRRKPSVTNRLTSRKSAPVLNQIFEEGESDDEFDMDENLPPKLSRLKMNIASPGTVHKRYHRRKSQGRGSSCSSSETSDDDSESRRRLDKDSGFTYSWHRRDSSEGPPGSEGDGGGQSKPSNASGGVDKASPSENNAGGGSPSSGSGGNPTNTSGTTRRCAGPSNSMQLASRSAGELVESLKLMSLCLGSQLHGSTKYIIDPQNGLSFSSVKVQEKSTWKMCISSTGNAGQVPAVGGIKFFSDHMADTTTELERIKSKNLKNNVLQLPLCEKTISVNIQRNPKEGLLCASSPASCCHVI
Conditions: SNRK; 1 uM; read-out: Percent Control (%). In a few lines:
as §1

Assay [5] concerns the target T5, scanMAX Kinase assay panel (Homo sapiens, UniProt Q8IY84).
T5 construct: purchased DiscoverX
The following applies: NIM1; 1 uM; read-out: Percent Control (%). In a few lines:
as §1

Assay [6] concerns the target T6, scanMAX Kinase assay panel (Homo sapiens, UniProt P22607).
T6 construct: purchased DiscoverX
Conditions: FGFR3; 1 uM; read-out: Percent Control (%). In a few lines:
as §1

Assay [7] deals with T7, scanMAX Kinase assay panel (Homo sapiens, UniProt P53350).
T7 construct: purchased DiscoverX
The following applies: PLK1; 1 uM; read-out: Percent Control (%). In a few lines:
as §1

The target in assay [8] is T8, scanMAX Kinase assay panel (Homo sapiens, UniProt Q13237).
T8 construct: purchased DiscoverX
T8 sequence (Q13237 1-762): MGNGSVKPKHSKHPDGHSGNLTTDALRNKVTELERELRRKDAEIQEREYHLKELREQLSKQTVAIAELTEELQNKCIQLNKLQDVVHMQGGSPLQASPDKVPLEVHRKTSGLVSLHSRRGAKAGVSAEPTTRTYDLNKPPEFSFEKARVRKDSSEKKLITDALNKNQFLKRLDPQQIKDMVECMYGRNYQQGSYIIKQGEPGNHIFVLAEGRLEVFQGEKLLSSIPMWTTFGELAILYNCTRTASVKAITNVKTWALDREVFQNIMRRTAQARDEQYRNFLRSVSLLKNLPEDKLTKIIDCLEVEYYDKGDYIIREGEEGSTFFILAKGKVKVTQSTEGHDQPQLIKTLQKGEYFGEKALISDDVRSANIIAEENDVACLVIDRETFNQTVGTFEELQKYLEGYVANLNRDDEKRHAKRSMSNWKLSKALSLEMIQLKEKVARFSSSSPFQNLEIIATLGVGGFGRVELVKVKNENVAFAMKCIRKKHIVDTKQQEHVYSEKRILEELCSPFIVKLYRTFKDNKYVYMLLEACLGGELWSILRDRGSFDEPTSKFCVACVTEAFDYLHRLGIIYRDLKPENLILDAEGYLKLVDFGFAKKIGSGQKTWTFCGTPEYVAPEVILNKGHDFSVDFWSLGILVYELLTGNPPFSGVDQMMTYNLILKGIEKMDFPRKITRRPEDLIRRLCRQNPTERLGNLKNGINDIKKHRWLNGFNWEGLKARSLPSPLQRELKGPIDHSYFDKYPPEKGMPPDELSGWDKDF
Conditions: PRKG2; 1 uM; read-out: Percent Control (%). In a few lines:
as §1

Assay [9] has as its target T9, scanMAX Kinase assay panel (Homo sapiens, UniProt Q13177).
T9 construct: purchased DiscoverX
Conditions: PAK2; 1 uM; read-out: Percent Control (%). In a few lines:
as §1

Like-named read-outs stand apart in the source and are kept apart here.

T3 sequence (Q00535 whole entry): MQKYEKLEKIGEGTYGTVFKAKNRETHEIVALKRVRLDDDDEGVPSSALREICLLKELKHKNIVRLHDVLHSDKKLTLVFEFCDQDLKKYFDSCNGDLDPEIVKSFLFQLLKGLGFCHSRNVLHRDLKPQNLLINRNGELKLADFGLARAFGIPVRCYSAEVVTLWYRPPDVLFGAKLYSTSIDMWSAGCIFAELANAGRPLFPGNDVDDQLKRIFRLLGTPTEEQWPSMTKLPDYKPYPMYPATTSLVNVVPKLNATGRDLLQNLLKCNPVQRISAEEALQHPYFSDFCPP
T2 sequence (P11802 whole entry): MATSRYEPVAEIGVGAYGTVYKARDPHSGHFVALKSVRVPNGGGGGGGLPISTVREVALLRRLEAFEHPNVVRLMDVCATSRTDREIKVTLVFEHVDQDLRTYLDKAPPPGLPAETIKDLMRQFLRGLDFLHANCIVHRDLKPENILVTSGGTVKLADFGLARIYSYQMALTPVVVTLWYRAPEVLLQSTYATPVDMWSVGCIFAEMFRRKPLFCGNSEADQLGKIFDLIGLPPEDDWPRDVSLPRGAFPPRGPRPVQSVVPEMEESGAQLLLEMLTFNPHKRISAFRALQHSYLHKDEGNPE
T7 sequence (P53350 whole entry): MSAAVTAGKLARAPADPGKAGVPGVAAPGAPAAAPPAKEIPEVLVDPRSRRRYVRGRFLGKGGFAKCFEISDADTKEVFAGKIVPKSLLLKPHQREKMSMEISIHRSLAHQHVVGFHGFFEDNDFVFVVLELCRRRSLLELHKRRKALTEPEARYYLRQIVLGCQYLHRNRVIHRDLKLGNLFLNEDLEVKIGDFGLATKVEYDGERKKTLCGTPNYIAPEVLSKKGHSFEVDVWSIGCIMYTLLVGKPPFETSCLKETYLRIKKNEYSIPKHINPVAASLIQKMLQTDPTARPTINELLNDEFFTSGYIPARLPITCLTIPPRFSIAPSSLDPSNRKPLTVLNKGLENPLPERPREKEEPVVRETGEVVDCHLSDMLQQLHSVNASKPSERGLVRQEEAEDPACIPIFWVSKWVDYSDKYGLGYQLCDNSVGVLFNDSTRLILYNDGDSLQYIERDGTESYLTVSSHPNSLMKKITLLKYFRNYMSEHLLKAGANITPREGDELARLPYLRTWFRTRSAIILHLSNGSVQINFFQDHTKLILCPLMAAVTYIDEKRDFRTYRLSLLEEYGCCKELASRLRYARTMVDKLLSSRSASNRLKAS
T5 sequence (Q8IY84 whole entry): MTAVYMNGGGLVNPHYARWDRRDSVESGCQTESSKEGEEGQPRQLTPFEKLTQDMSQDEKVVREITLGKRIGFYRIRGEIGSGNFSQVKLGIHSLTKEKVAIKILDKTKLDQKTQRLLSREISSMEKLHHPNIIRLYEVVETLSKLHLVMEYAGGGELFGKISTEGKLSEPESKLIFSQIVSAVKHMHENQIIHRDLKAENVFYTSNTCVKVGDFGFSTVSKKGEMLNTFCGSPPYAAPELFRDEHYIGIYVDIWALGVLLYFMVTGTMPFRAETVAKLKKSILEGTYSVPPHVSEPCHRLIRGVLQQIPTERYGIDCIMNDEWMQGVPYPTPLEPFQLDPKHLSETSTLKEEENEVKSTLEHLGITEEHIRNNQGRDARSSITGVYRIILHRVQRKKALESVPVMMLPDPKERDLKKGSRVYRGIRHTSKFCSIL
T9 sequence (Q13177 whole entry): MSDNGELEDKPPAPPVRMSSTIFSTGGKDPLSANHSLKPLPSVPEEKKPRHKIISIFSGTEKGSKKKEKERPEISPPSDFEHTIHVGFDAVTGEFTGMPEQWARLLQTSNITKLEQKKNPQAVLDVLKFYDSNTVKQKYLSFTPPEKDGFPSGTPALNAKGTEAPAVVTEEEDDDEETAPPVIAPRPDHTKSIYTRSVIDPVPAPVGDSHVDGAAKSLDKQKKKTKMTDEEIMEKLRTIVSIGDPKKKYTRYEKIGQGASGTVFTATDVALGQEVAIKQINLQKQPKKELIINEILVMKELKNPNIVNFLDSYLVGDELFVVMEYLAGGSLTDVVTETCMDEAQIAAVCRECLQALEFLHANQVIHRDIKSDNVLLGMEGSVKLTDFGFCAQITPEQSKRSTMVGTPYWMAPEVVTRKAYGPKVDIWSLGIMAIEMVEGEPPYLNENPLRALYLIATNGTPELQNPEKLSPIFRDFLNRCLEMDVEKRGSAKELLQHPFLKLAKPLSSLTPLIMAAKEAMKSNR
T6 sequence (P22607 23-806): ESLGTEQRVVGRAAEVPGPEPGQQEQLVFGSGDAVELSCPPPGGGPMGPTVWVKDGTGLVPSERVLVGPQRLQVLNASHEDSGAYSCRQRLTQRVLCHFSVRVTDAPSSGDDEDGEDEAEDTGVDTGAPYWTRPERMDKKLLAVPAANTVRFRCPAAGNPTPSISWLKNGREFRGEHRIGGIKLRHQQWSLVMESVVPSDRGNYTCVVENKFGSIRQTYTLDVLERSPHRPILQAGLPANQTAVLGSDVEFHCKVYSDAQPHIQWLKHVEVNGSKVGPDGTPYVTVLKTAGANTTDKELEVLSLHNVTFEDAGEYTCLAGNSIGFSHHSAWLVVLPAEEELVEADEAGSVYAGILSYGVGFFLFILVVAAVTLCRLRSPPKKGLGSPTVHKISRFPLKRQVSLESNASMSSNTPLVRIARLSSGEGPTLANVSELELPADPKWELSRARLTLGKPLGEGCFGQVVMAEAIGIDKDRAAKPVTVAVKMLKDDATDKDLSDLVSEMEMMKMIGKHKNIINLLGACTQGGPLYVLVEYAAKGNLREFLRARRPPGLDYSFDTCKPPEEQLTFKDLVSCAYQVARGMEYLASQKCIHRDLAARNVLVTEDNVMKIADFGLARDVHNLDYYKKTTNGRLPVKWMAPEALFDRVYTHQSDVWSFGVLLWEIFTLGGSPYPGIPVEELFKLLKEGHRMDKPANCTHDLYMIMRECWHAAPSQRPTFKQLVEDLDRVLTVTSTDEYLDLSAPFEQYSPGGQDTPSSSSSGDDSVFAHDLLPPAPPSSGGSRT

For `Cc1ccc(C(=O)Nc2ccc(CN3CCN(C)CC3)c(C(F)(F)F)c2)cc1C#Cc1cnc2c(Nc3cnn(C)c3)cccn12` [Example 1, 4-methyl-3-((8-((1-methyl-1H-pyrazol-4-yl)amino)imidazo[1,2-a]pyridin-3-yl)ethynyl)-N-(4-((4-methylpiperazin-1-yl)methyl)-3-(trifluoromethyl)phenyl)benzamide], the remaining binding at 1 µM in assay [1] worked out at 98%; in assay [2] (CDK4-cyclinD1), 84%; in [2] (CDK4-cyclinD3) it was 78%; in [2] (CDK4), 83%; in [3], 30%; in [4] it was 84%. Also, the remaining binding at 1 µM was 92% in [5]; 3% in assay [6]; 77% in assay [7]; 75% in [8]; 64% in assay [9].

In the case of `Cc1ccc(NC(=O)C2(C(=O)Nc3ccc(F)cc3)CC2)cc1C#Cc1cnc2c(Nc3cnn(C(C)C)c3)cccn12` [Example 78], the remaining binding at 1 µM in assay [1] is 100%; in assay [2] (CDK4-cyclinD1), 100%; in assay [2] (CDK4-cyclinD3), 100%; in [2] (CDK4) it was 100%; in [3], 100%; in assay [4] it was 95%. In addition, the remaining binding at 1 µM in [5], in assay [6], in [7], in assay [8] and in assay [9] was 100% each time.

For the molecule `Cc1cn(-c2cc(NC(=O)c3ccc(C)c(C#Cc4cnc5c(Nc6cnn(C)c6)cccn45)c3)cc(C(F)(F)F)c2)cn1` [Example 12, 4-methyl-N-(3-(4-methyl-1H-imidazol-1-yl)-5-(trifluoromethyl)phenyl)-3-((8-((1-methyl-1H-pyrazol-4-yl)amino)imidazo[1,2-a]pyridin-3-yl)ethynyl)benzamide], the remaining binding at 1 µM was 85% in [1]; 100% in assay [2] (CDK4-cyclinD1); 100% in assay [2] (CDK4-cyclinD3); 100% in assay [2] (CDK4); 89% in assay [3]; 100% in assay [4]. For the same molecule, the remaining binding at 1 µM in assay [5] worked out at 100%; in assay [6], 33%; in assay [7], 100%; in assay [8], 90%; in [9] it was 54%.

Values taken from patent publication US10870647B2, “Imidazopyridine derivative, method for preparing same, and pharmaceutical composition containing same as active ingredient for preventing or treating cancer” (DAEGU-GYEONGBUK MEDICAL INNOVATION FOUNDATION, priority 2016, dated 2020).
